Data: publication PMC9465256, “Discovering monoacylglycerol lipase inhibitors by a combination of fluorogenic substrate assay and activity-based protein profiling” (Frontiers in Pharmacology, 2022)

Legend:
human ABHD12 = biological target: T1, human ABHD12 (Homo sapiens, UniProt Q8N2K0); assay: ABHD12 activity by competitive ABPP with FP-TAMRA; type: biochemical; details: for potency towards ABHD12: 100 µM; for potency towards ABHD12 / inhibition at 100 µM: competitive ABPP; for inhibition at 100 µM: recombinant human ABHD12, 100 µM compound
T1 construct: expressed in transfected cells; host or cells: HEK293T (transient transfection; membrane fraction)
T1 sequence (Q8N2K0 1-398): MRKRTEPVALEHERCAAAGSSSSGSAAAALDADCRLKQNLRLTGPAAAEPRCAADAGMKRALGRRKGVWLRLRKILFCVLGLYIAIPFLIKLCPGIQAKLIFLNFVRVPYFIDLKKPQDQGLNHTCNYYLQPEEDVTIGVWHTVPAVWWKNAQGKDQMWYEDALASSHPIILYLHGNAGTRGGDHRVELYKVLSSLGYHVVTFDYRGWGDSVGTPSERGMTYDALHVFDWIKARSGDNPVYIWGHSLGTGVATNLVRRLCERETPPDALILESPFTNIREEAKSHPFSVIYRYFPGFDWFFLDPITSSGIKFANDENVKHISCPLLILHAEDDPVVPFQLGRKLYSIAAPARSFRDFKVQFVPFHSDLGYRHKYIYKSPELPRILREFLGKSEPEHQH
Method in brief: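 Membrane fractions of HEK293T cells transiently overexpressing human ABHD12 (1 mg/ml) preincubated with inhibitor or DMSO for 30 min at room temperature, then labelled with FP-TAMRA (250 nM final) for 20 min. Quenched samples resolved by SDS-PAGE and read by in-gel fluorescence scanning (Cy3 settings).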

A431 cells = assay: Cell viability assay (CCK-8), A431; type: cell-based; details: for IC50: Homo sapiens, A-431, read-out: Antiproliferation activity (pIC50 ± SEM) A431 (converted)
Protocol: (§1) Various cancer cell lines, including human colon cancer cell line HT-29, ovarian cell line OVCAR-3, melanoma cell line B16-F10, skin squamous cancer cells A431, cervical cancer cells Hela, lung cancer cell lines A549, H1975, and HCC827, were purchased from American type culture collection (ATCC). A431, H1975, B16-F10, OVCAR-3, HT-29, HCC827, Hela, and A549 cells were cultured in Dulbecco’s modified Eagle medium (DMEM, Gibco) containing 10% fetal bovine serum (FBS, Gibco), penicillin (100 U/ml) and streptomycin (100 μg/ml). All cell lines were maintained in a humidified 37°C incubator with 5% CO2. The medium was refreshed every 2–3 days and the cells were passaged at ∼90% confluence by adding the fresh medium, followed by vigorously pipetting the resuspend cells. Of note, the cells were only washed with PBS when a significant number of dead cells were observed.
(§2) The antiproliferation activity of the compounds against the cancer cell lines was evaluated using Cell Counting Kit-8. Briefly, cells (∼1,000 per well) in 100 µl of culture medium were plated in a 96-well plate for 24 h and 100 µl of medium with different concentrations of the tested compounds was added to each well for 48 h. Then 10 μl of CCK8 solution (#CK04, Dojindo) was added and incubated at 37°C for 2 h. The absorbance of each well was measured with a plate reader (BioTeck) at 450 nm. Cell viability was calculated as follows: cell viability (%) = [(As-Ab)/(Ac-Ab)] × 100. Among them, As represents the absorbance of experimental wells, Ab represents the absorbance of blank wells and Ac represents the absorbance of control wells. The experiments were repeated at least three times and IC50 values were determined by plotting a log(inhibitor) v. s normalized response (Variable slope) dose–response curve generated using GraphPad Prism software.

H1975 cells = assay: Cell viability assay (CCK-8), H1975; type: cell-based; details: for IC50: Homo sapiens, NCI-H1975, H1975, 48 h, read-out: Antiproliferation activity (pIC50 ± SEM) H1975 (converted)
Protocol: as §1, §2

OVCAR-3 cells = assay: Cell viability assay (CCK-8), OVCAR-3; type: cell-based; details: OVCAR-3, 48 h; for IC50: Homo sapiens, read-out: Antiproliferation activity (pIC50 ± SEM) OVCAR-3 (converted)
Protocol: as §1, §2

HCC827 cells = assay: Cell viability assay (CCK-8), HCC827; type: cell-based; details: HCC827, 48 h; for IC50: Homo sapiens, read-out: Antiproliferation activity (pIC50 ± SEM) HCC827 (converted)
Protocol: as §1, §2

[1] = 100 µM compound, competitive ABPP with probe FP-TAMRA (250 nM), read-out: ABHD12 Inhibition (%)

Row | Compound | activity at 100 µM (human ABHD12; [1]) | potency towards ABHD12 (human ABHD12) | inhibition at 100 µM (human ABHD12) | IC50 (A431 cells; A431, 48 h, CCK-8) | IC50 (H1975 cells) | IC50 (OVCAR-3 cells) | IC50 (HCC827 cells) | activity (human ABHD12; [1]) | Antiproliferation activity (pIC50 ± SEM) A431 (A431 cells; A431, 48 h, CCK-8) | Antiproliferation activity (pIC50 ± SEM) H1975 (H1975 cells; H1975, 48 h) | Antiproliferation activity (pIC50 ± SEM) OVCAR-3 (OVCAR-3 cells) | Antiproliferation activity (pIC50 ± SEM) HCC827 (HCC827 cells) | inhibition of cell viability of A431 (A431 cells; 20 µM, 48 h)
1 | C[C@H]1COC2=C1C(=O)C(=O)c1c2ccc2c1CCCC2(C)C [compound 23, Cryptotanshinone] | 81.6% | neglectable potency | 18% | 7.94 µM | 10 µM | 5.01 µM | 6.31 µM |  |  |  |  |  | 
2 | COc1ccc2cc3[n+](cc2c1OC)CCc1cc2c(cc1-3)OCO2 [compound 17, Berberine chloride] | 86.1% |  |  | > 10 µM | > 10 µM | > 10 µM | > 10 µM |  |  |  |  |  | 
3 | Cl.N=c1ccn2c(n1)O[C@H]1[C@H](O)[C@@H](CO)O[C@H]12 [compound 1, Cyclocytidine HCl] |  |  |  |  |  |  |  | 70.1% | <5 | <5 | 5.7 ± 0.3 | 5.1 ± 0.2 | 
4 | COc1ccc(C(C)=O)c(O)c1 [compound 64, Paeonol] | 92.2% |  |  | 6.31 µM | > 10 µM | > 10 µM | > 10 µM |  |  |  |  |  | 78%
5 | O=c1cc(-c2ccc(O)cc2)oc2cc(O)cc(O)c12 [compound 9, Apigenin] | 62.8% | neglectable potency | 37% | > 10 µM | > 10 µM | > 10 µM | > 10 µM |  |  |  |  |  | 
